Reference: publication PMC12119672, “Development and evaluation of [^11C]DPA-813 and [^18F]DPA-814: novel TSPO PET tracers insensitive to human single nucleotide polymorphism rs6971” (European Journal of Nuclear Medicine and Molecular Imaging, 2025)
Where “and” joins values, the source holds several entries; their conditions need not be identical. Equal entries are not always repeated. One block for each compound: values may come before it.

Experiments:
[1] = tested on: EAE rat model (spinal cord); assay: PET imaging in the EAE rat model; type: in vivo; conditions: for higher uptake (AUC of time activity curve) in the spinal cord of EAE rats compared to CFA control: dynamic PET 60 min, peak of clinical symptoms; for higher difference EAE vs control compared with the fluorinated compound: [11C]DPA-813 vs [18F]DPA-814, [11C]DPA-713 vs [18F]DPA-714
rat TSPO = target: T1, rat TSPO (Rattus norvegicus, UniProt P16257); assay: Competitive binding to rat TSPO vs [3H]PK 11195 (Eurofins assay #226700, rat heart membranes); conditions: vs DPA-713 / DPA-714
T1 construct: Heart of male Wistar derived rats weighing 175 ± 25 g are used to prepare peripheral benzodiazepine membrane receptors [TSPO]; tissue Eurofins Panlabs Discovery Services assay #226700; host or cells: rat heart (male Wistar derived)
Method: Binding affinities (Ki) to wild-type (WT) and A147T human TSPO were assessed using a previously published method. HEK-293T cells were stably transfected with WT and A147T TSPO. Membranes were isolated from each cell line using an Ultra-Turrax hand-held homogeniser. These cells have been previously validated as an in vitro model for low- and high-affinity TSPO binding. […] Non-specific binding was determined using a saturating concentration (1 µM) of non-tritiated PK 11195. This non-specific binding contributed less than 10% of total binding. Reactions were halted by filtering through a 96-well glass-fibre filter plate (Millipore), followed by eight washes with ice-cold 50 mM Tris HCl. Microscint 0 was added to the plate and resultant radioactivity-related photons were collected by a Microbeta 2450 (PerkinElmer). Ki values were fit to a competition binding curve fit on non-specific binding-corrected data using GraphPad Prism 10.0 (GraphPad). Results are presented as mean ± standard error of the mean (SEM) from at least three independent experiments. Binding affinities (Ki) to rat TSPO were measured in duplicate by Eurofins Panlabs Discovery Services (assay #226700) (Supplementary Fig. 12). Single-dose (10 µM) off-target in vitro screening was performed in duplicate by Eurofins Panlabs Discovery Services (Supplementary Table 5).
Supplementary Figure 12 Dose-response curves and binding affinities of DPA-813 and DPA-814 showing competitive binding to rat TSPO vs [^3H]PK 11195. Method from Eurofins: Heart of male Wistar derived rats weighing 175 ± 25 g are used to prepare peripheral benzodiazepine membrane receptors [TSPO] in modified Tris-HCl buffer pH 7.5. A 0.25 mg aliquot is incubated with 0.3 nM [^3H]PK 11195 for 15 minutes at 25 °C. Non-specific binding is estimated in the presence of 100 μM Dipyridamole. Membranes are filtered and washed, the filters are then counted to determine [^3H]PK 11195 specifically bound.

TSPO in human MS tissues = assay: Autoradiography on genotyped human MS brain tissue (HAB, MAB, LAB); type: binding
Text: Brain tissues from MS patients (n = 7) were used in this study and were obtained from the MS centre of the Amsterdam University Medical Centers (AUMC). For some patient material, several brain tissues were available. The MS centre received permission from the Ethical Committee of the AUMC (Amsterdam, The Netherlands) to perform autopsies for tissue use and access to medical records for research purposes. All patients and controls, or their next of kin, had given informed consent for autopsy and use of brain tissue for research purposes.
TSPO rs6971 SNP was determined with a Taqman assay (C_2512465_20, ThermoFisher Scientific, The Netherlands). DNA was isolated from human MS brain tissue cryosections using a QIAmp mini kit from Qiagen according to the manufacturer’s recommendation. The concentration of the isolated DNA was determined on a nanodrop (NanoVue Plus, Biochrom). DNA concentration ranged from 45 to 246 µg/mL. QPCR was performed on a QuantStudio (Applied Biosystems, The Netherlands). Synthetic DNA (300 bp) for the two TSPO SNP alleles, rs6971-A, and rs6971-G, was used as a control for the Taqman assay. DNA samples were diluted 1/100 in milliQ water, and 4.5 µL was used for the QPCR. Control DNA sequences were reconstituted in 10 ng/mL in milliQ water. The final QPCR solution contained 5 µL TaqPath proAmp master mix (ThermoFisher Scientific, The Netherlands), 0.5 µL Taqman SNP, and 4.5 µL DNA. Results of the Taqman assay are summarised in Supplementary Tables 4 and Supplementary Fig. 2.
Human MS tissue cryosections (20 μm) were mounted on glass slides, air-dried, and stored at − 80 °C until needed. Prior to use, the sections were washed three times in PBS for 5 min each, then dried under an airflow. […] For blocking experiments, tissue sections were co-incubated with PK 11195 (10 µM) and the tracer. After incubation, sections were washed for 90 s three times each in ice-cold PBS and then dipped in deionized water twice. The sections were air-dried and exposed to a phosphor screen BAS-IP SR 2025 (General Electric, Eindhoven, The Netherlands). Phosphor screens were subsequently imaged using a Typhoon FLA 7000 imager (General Electric, Eindhoven, The Netherlands), and signal intensity was quantified using ImageLab software (BioRad, Lunteren, The Netherlands).

[2] = Ex vivo metabolite analysis (plasma and brain) in wild-type rats; set-up: species or system rat; conditions: i.v.
Method: Metabolite analysis was conducted following the method outlined in a previous study. Wistar/RccHan (WIST) rats (Inotiv, the Netherlands) received intravenous injections of either [^11C]DPA-813 (30–50 MBq) or [^18F]DPA-814 (20–30 MBq). Rats were euthanized at 5, 15, and 45 min post-injection (n = 4 per time point). Plasma was separated from blood then processed through a C18 Sep-Pak (Waters, Milford, MA, USA). After washing with 3 mL of water to isolate the polar fraction, the non-polar fraction was eluted using 2 mL of methanol and 1 mL of water and subsequently analyzed by HPLC. The brain tissue was collected and homogenized in a mixture of MeCN and H2O (50/50, 4 mL) before centrifugation (5 min, 4000 rpm, 20 °C, Hettich Universal 32). The obtained supernatant was separated from the precipitate and analyzed via HPLC. Analytical HPLC was performed using a Dionex UltiMate 3000 HPLC system equipped with Chromeleon software (version 6.8), utilizing a Gemini C18 5-µm (10 × 250 mm) column (Phenomenex, Torrance, CA, USA). All fractions were assessed for radioactivity using a Wizard Gamma counter 1470 or 2480 (Wallac/PerkinElmer, Waltham, MA, USA).

[3] = Ex vivo biodistribution in wild-type rats; set-up: species or system rat; conditions: i.v.
Method: Wistar/RccHan (WIST) rats from Inotiv, the Netherlands, received intravenous injections via a tail vein catheter of either [^11C]DPA-813 (30–50 MBq) or [^18F]DPA-814 (20–30 MBq). The rats were euthanized at 5, 15, and 45 min post-injection (n = 4 per time point). Blood, heart, lungs, liver, spleen, kidney, urine, bone, brain, duodenum, small intestine, skin, and muscle were collected, weighed, and their radioactivity measured using a Wizard Gamma counter 1470 or 2480 (Wallac/PerkinElmer, Waltham, MA, USA). Entire organs were collected, except for larger organs like the liver and lungs, where only a portion was dissected. The radioactivity uptake in each organ was expressed as the percentage of the injected dose per gram of tissue (%ID/g).

Structure (SMILES): CCN(CC)C(=O)Cc1c(-c2ccc(OCC[18F])cc2)nn2c(C)cc(C)nc12 [[^18F]DPA-714, reference compound]
higher uptake (AUC of time activity curve) in the spinal cord of EAE rats compared to CFA control [1]: 27%

higher affinity to rat TSPO compared to the parent compound (rat TSPO): 24 fold
ratio of the binding quantification [11C]DPA-813/[11C]DPA-713 (TSPO in human MS tissues; HAB human MS tissue): 1 ± 0.2
ratio of the binding quantification [11C]DPA-813/[11C]DPA-713 (TSPO in human MS tissues; LAB human MS tissue): 3
ratio of the binding quantification [11C]DPA-813/[11C]DPA-713 (TSPO in human MS tissues; MAB human MS tissue): 1.6 ± 0.1
Brain, Parent (intact tracer) ([2]; 5 min post-injection): 99.7 ± 0.1%
Plasma, Parent (Intact tracer) ([2]; 5 min post-injection): 87.9 ± 2.4%
Brain, Parent (intact tracer) ([2]; 15 min post-injection): 99.6 ± 0.3%
Plasma, Parent (Intact tracer) ([2]; 15 min post-injection): 85.5 ± 3.2%
Brain, Parent (intact tracer) ([2]; 45 min post-injection): 98.9 ± 0.9%
Plasma, Parent (Intact tracer) ([2]; 45 min post-injection): 67.2 ± 2.9% and 67%
Biodistribution, Blood ([3]; 5 min post-injection): 0.31 ± 0.1 %ID/g
Biodistribution, Bone ([3]; 5 min post-injection): 0.28±0.1 %ID/g
Biodistribution, Brain ([3]; 5 min post-injection): 0.41 ± 0.1 %ID/g
Biodistribution, Duodenum ([3]; 5 min post-injection): 1.44±0.2 %ID/g
Biodistribution, Heart ([3]; 5 min post-injection): 3.70±0.5 %ID/g
Biodistribution, Kidney ([3]; 5 min post-injection): 3.80±0.5 %ID/g
Biodistribution, Liver ([3]; 5 min post-injection): 1.42±0.4 %ID/g
Biodistribution, Lungs ([3]; 5 min post-injection): 29.84±3. %ID/g
Biodistribution, Skin ([3]; 5 min post-injection): 0.09±0.1 %ID/g
Biodistribution, Small intestine ([3]; 5 min post-injection): 1.04±0.4 %ID/g
Biodistribution, Tail ([3]; 5 min post-injection): 1.30±0.6 %ID/g
Biodistribution, Urine ([3]; 5 min post-injection): 0.03±0.0 %ID/g
Biodistribution, muscle ([3]; 5 min post-injection): 0.07±0.0 %ID/g
Biodistribution, spleen ([3]; 5 min post-injection): 4.62±0.6 %ID/g
Biodistribution, Blood ([3]; 15 min post-injection): 0.34±0.1 %ID/g
Biodistribution, Bone ([3]; 15 min post-injection): 0.35±0.1 %ID/g
Biodistribution, Brain ([3]; 15 min post-injection): 0.39±0.0 %ID/g
Biodistribution, Duodenum ([3]; 15 min post-injection): 1.37±0.1 %ID/g
Biodistribution, Heart ([3]; 15 min post-injection): 4.57±0.2 %ID/g
Biodistribution, Kidney ([3]; 15 min post-injection): 4.31±0.5 %ID/g
Biodistribution, Liver ([3]; 15 min post-injection): 1.69 ± 0.2 %ID/g
Biodistribution, Lungs ([3]; 15 min post-injection): 24.03±7. %ID/g
Biodistribution, Skin ([3]; 15 min post-injection): 0.10±0.0 %ID/g
Biodistribution, Small intestine ([3]; 15 min post-injection): 0.77±0.3 %ID/g
Biodistribution, Tail ([3]; 15 min post-injection): 1.18±0.1 %ID/g
Biodistribution, Urine ([3]; 15 min post-injection): 0.02±0.0 %ID/g
Biodistribution, muscle ([3]; 15 min post-injection): 0.10±0.0 %ID/g
Biodistribution, spleen ([3]; 15 min post-injection): 5.88±1.8 %ID/g
Biodistribution, Blood ([3]; 45 min post-injection): 0.27 ± 0.01 %ID/g
Biodistribution, Bone ([3]; 45 min post-injection): 0.26±0.1 %ID/g
Biodistribution, Brain ([3]; 45 min post-injection): 0.34 ± 0.1 %ID/g
Biodistribution, Duodenum ([3]; 45 min post-injection): 1.51±0.1 %ID/g
Biodistribution, Heart ([3]; 45 min post-injection): 4.28±0.3 %ID/g
Biodistribution, Kidney ([3]; 45 min post-injection): 4.20±0.6 %ID/g
Biodistribution, Liver ([3]; 45 min post-injection): 1.68±0.3 %ID/g
Biodistribution, Lungs ([3]; 45 min post-injection): 16.13±3.5 %ID/g
Biodistribution, Skin ([3]; 45 min post-injection): 0.12±0.04 %ID/g
Biodistribution, Small intestine ([3]; 45 min post-injection): 1.18±0.2 %ID/g
Biodistribution, Tail ([3]; 45 min post-injection): 1.33±0.7 %ID/g
Biodistribution, Urine ([3]; 45 min post-injection): 0.23±0.3 %ID/g
Biodistribution, muscle ([3]; 45 min post-injection): 0.12±0.03 %ID/g
Biodistribution, spleen ([3]; 45 min post-injection): 6.66±1.2 %ID/g
Structure (SMILES): Cc1cc(C)n2nc(-c3ccc(O[11CH3])cc3)c(CC(=O)N(C)c3ccccc3)c2n1 [[^11C]DPA-813]
higher difference EAE vs control compared with the fluorinated compound [1]: 3 folds
higher uptake (AUC of time activity curve) in the spinal cord of EAE rats compared to CFA control [1]: 64%

Structure (SMILES): CCN(CC)C(=O)Cc1c(-c2ccc(O[11CH3])cc2)nn2c(C)cc(C)nc12 [[^11C]DPA-713, reference compound]
higher difference EAE vs control compared with the fluorinated compound [1]: 2.5 folds
higher uptake (AUC of time activity curve) in the spinal cord of EAE rats compared to CFA control [1]: 67%
